Experimental findings from patent US10287295B2, “TGF-β inhibitors” (Rigel Pharmaceuticals, Inc., priority 2015, dated 2019) are described below.

Molecules are shown by their SMILES.

In test [1] the test system is GDF8 signaling (GDF pSMAD, MPC11). As to the kind of experiment: AlphaScreen SureFire SMAD3 (p-Ser423/425) assay, inhibition of GDF8 signaling. To be noted: Mus musculus, MPC-11, inhibition of GDF8 signaling, p-SMAD3 readout. The test is classed as cell-based.
The subject of test [2] is TGF-β signaling (TGF-β pSMAD, MPC-11). Briefly: AlphaScreen SureFire SMAD3 (p-Ser423/425) assay, inhibition of TGF-β signaling. It counts as cell-based. The following applies: Mus musculus, MPC-11, inhibition of TGF-β signaling, p-SMAD3 readout.

One may read the IC50 as the midpoint of a concentration-inhibition curve. A lower IC50 goes with higher potency.

As for `Cc1nc(-c2cccc(Cl)c2)c(-c2ccc3ncnn3c2)[nH]1` [Compound 103, 6-(4-(3-Chlorophenyl)-2-methyl-1H-imidazol-5-yl)-[1,2,4]triazolo[1,5-a]pyridine], the IC50 worked out at 130 nM in test [1] and 690 nM in test [2].
The matching figures for `Cc1nc(-c2cccc(Cl)c2)c(-c2ccc3nccn3c2)[nH]1` [Compound 104, 6-(4-(3-Chlorophenyl)-2-methyl-1H-imidazol-5-yl)imidazo[1,2-a]pyridine]: 80 nM and 510 nM.
The matching figures for `CCc1nc(-c2ccc(F)c(C)c2)c(-c2ccc3[nH]ncc3c2)[nH]1` [Compound 106, 5-(2-Ethyl-4-(4-fluoro-3-methylphenyl)-1H-imidazol-5-yl)-1H-indazole]: 150 nM and 920 nM.
`CCc1nc(-c2ccc(F)c(C)c2)c(-c2ccc3cn[nH]c3c2)[nH]1` [Compound 107, 6-(2-Ethyl-4-(4-fluoro-3-methylphenyl)-1H-imidazol-5-yl)-1H-indazole]: the half-inhibitory concentration (IC50) stood at 340 nM in test [1] and 1850 nM in test [2].
The matching figures for `CCc1nc(-c2ccc(F)c(C)c2)c(-c2ccc3ncnn3c2)[nH]1` [Compound 108, 6-(2-Ethyl-4-(4-fluoro-3-methylphenyl)-1H-imidazol-5-yl)-[1,2,4]triazolo[1,5-a]pyridine]: 80 nM and 400 nM.
The matching figures for `CCc1nc(-c2ccc(F)c(C)c2)c(-c2ccc3ncsc3c2)[nH]1` [Compound 109, 6-(2-Ethyl-4-(4-fluoro-3-methylphenyl)-1H-imidazol-5-yl)benzo[d]thiazole]: 150 nM and 870 nM.
In the same order, the values of `CCc1nc(-c2ccc(F)c(C)c2)c(-c2ccc3nccn3c2)[nH]1` [Compound 110, 6-(2-Ethyl-4-(4-fluoro-3-methylphenyl)-1H-imidazol-5-yl)imidazo[1,2-a]pyridine] are 250 nM and 1050 nM.
Turning to `CCc1nc(-c2ccc(F)c(C)c2)c(-c2ccc3ncccc3c2)[nH]1` [Compound 111, 6-(2-Ethyl-4-(4-fluoro-3-methylphenyl)-1H-imidazol-5-yl)quinoline], the concentration for half-maximal inhibition (IC50) in test [1] came to 790 nM; in test [2] it was 4480 nM.
The matching figures for `CCc1nc(-c2ccc(F)c(C)c2)c(-c2ccc3nccnc3c2)[nH]1` [Compound 112, 6-(2-Ethyl-4-(4-fluoro-3-methylphenyl)-1H-imidazol-5-yl)quinoxaline]: 280 nM and 1370 nM.
In the same order, the values of `CCc1nc(-c2cccc(C)c2)c(-c2ccc3[nH]ncc3c2)[nH]1` [Compound 113, 5-(2-Ethyl-4-(m-tolyl)-1H-imidazol-5-yl)-1H-indazole] are 460 nM and 3110 nM.
The matching figures for `CCc1nc(-c2cccc(C)c2)c(-c2ccc3cn[nH]c3c2)[nH]1` [Compound 114, 6-(2-Ethyl-4-(m-tolyl)-1H-imidazol-5-yl)-1H-indazole]: 180 nM and 1130 nM.
For `CCc1nc(-c2cccc(C)c2)c(-c2ccc3ncnn3c2)[nH]1` [Compound 115, 6-(2-Ethyl-4-(m-tolyl)-1H-imidazol-5-yl)-[1,2,4]triazolo[1,5-a]pyridine], the figures for the IC50 in test [1] and in test [2] were 160 nM and 750 nM, respectively.
In the same order, the values of `CCc1nc(-c2cccc(C)c2)c(-c2ccc3ncsc3c2)[nH]1` [Compound 116, 6-(2-Ethyl-4-(m-tolyl)-1H-imidazol-5-yl)benzo[d]thiazole] are 280 nM and 1520 nM.
Consider `CCc1nc(-c2cccc(C)c2)c(-c2ccc3nccn3c2)[nH]1` [Compound 117, 6-(2-Ethyl-4-(m-tolyl)-1H-imidazol-5-yl)imidazo[1,2-a]pyridine], for which the results for the IC50 in test [1] and in test [2] were 330 nM and 2180 nM, respectively.
Take `CCc1nc(-c2cccc(C)c2)c(-c2ccc3nccnc3c2)[nH]1` [Compound 118, 6-(2-Ethyl-4-(m-tolyl)-1H-imidazol-5-yl)quinoxaline]: the IC50 in test [1] came out at 230 nM; in test [2], 1390 nM.
The matching figures for `CCc1nc(-c2ccc(F)cc2)c(-c2ccc3[nH]ncc3c2)[nH]1` [Compound 119, 5-(2-Ethyl-4-(4-fluorophenyl)-1H-imidazol-5-yl)-1H-indazole]: 410 nM and 4740 nM.
For the compound `CCc1nc(-c2ccc(F)cc2)c(-c2ccc3cn[nH]c3c2)[nH]1` [Compound 120, 6-(2-Ethyl-4-(4-fluorophenyl)-1H-imidazol-5-yl)-1H-indazole], the IC50 in test [1] stood at 470 nM; in test [2], 8160 nM.
Turning to `CCc1nc(-c2ccc(F)cc2)c(-c2ccc3ncnn3c2)[nH]1` [Compound 121, 6-(2-Ethyl-4-(4-fluorophenyl)-1H-imidazol-5-yl)-[1,2,4]triazolo[1,5-a]pyridine], the IC50 in test [1] is 460 nM; in test [2], 2070 nM.
In the same order, the values of `CCc1nc(-c2ccc(F)cc2)c(-c2ccc3ncsc3c2)[nH]1` [Compound 122, 6-(2-Ethyl-4-(4-fluorophenyl)-1H-imidazol-5-yl)benzo[d]thiazole] are 580 nM and 4530 nM.
In the same order, the values of `CCc1nc(-c2ccc(F)cc2)c(-c2ccc3nccn3c2)[nH]1` [Compound 123, 6-(2-Ethyl-4-(4-fluorophenyl)-1H-imidazol-5-yl)imidazo[1,2-a]pyridine] are 740 nM and 9370 nM.
In the same order, the values of `CCc1nc(-c2cccc(Cl)c2)c(-c2ccc3[nH]ncc3c2)[nH]1` [Compound 124, 5-(4-(3-Chlorophenyl)-2-ethyl-1H-imidazol-5-yl)-1H-indazole] are 540 nM and 1340 nM.
For `CCc1nc(-c2cccc(Cl)c2)c(-c2ccc3ncnn3c2)[nH]1` [Compound 125, 6-(4-(3-Chlorophenyl)-2-ethyl-1H-imidazol-5-yl)-[1,2,4]triazolo[1,5-a]pyridine], the values for the half-maximal inhibitory concentration (IC50) in test [1] and in test [2] were 50 nM and 120 nM, respectively.
In the same order, the values of `CCc1nc(-c2cccc(Cl)c2)c(-c2ccc3ncsc3c2)[nH]1` [Compound 126, 6-(4-(3-Chlorophenyl)-2-ethyl-1H-imidazol-5-yl)benzo[d]thiazole] are 90 nM and 340 nM.
The matching figures for `CCc1nc(-c2cccc(Cl)c2)c(-c2ccc3nccn3c2)[nH]1` [Compound 127, 6-(4-(3-Chlorophenyl)-2-ethyl-1H-imidazol-5-yl)imidazo[1,2-a]pyridine]: 190 nM and 570 nM.
The matching figures for `CCc1nc(-c2cccc(Cl)c2)c(-c2ccc3ncccc3c2)[nH]1` [Compound 128, 6-(4-(3-Chlorophenyl)-2-ethyl-1H-imidazol-5-yl)quinoline]: 460 nM and 1480 nM.
For `CCc1nc(-c2cccc(Cl)c2)c(-c2ccc3nccnc3c2)[nH]1` [Compound 129, 6-(4-(3-Chlorophenyl)-2-ethyl-1H-imidazol-5-yl)quinoxaline], the figures for the IC50 in test [1] and in test [2] were 290 nM and 1340 nM, respectively.
In the same order, the values of `CCc1nc(-c2ccc(F)c(F)c2)c(-c2ccc3[nH]ncc3c2)[nH]1` [Compound 130, 5-(4-(3,4-Difluorophenyl)-2-ethyl-1H-imidazol-5-yl)-1H-indazole] are 650 nM and 2320 nM.
The matching figures for `CCc1nc(-c2ccc(F)c(F)c2)c(-c2ccc3cn[nH]c3c2)[nH]1` [Compound 131, 6-(4-(3,4-Difluorophenyl)-2-ethyl-1H-imidazol-5-yl)-1H-indazole]: 920 nM and 3910 nM.
The matching figures for `CCc1nc(-c2ccc(F)c(F)c2)c(-c2ccc3ncnn3c2)[nH]1` [Compound 132, 6-(4-(3,4-Difluorophenyl)-2-ethyl-1H-imidazol-5-yl)-[1,2,4]triazolo[1,5-a]pyridine]: 550 nM and 1390 nM.
As to `CCc1nc(-c2ccc(F)c(F)c2)c(-c2ccc3ncsc3c2)[nH]1` [Compound 133, 6-(4-(3,4-Difluorophenyl)-2-ethyl-1H-imidazol-5-yl)benzo[d]thiazole], the half-maximal inhibitory concentration (IC50) in test [1] stood at 360 nM; in test [2], 2210 nM.
The matching figures for `CCc1nc(-c2ccc(F)c(F)c2)c(-c2ccc3nccn3c2)[nH]1` [Compound 134, 6-(4-(3,4-Difluorophenyl)-2-ethyl-1H-imidazol-5-yl)imidazo[1,2-a]pyridine]: 870 nM and 2540 nM.
Turning to `CCc1nc(-c2ccc(F)c(F)c2)c(-c2ccc3nccnc3c2)[nH]1` [Compound 135, 6-(4-(3,4-Difluorophenyl)-2-ethyl-1H-imidazol-5-yl)quinoxaline], the results for the IC50 in test [1] and in test [2] were 770 nM and 3420 nM, respectively.
The matching figures for `CCc1nc(-c2cccc(F)c2)c(-c2ccc3ncnn3c2)[nH]1` [Compound 136, 6-(2-Ethyl-4-(3-fluorophenyl)-1H-imidazol-5-yl)-[1,2,4]triazolo[1,5-a]pyridine]: 750 nM and 2300 nM.
Turning to `CCc1nc(-c2cccc(F)c2)c(-c2ccc3ncsc3c2)[nH]1` [Compound 137, 6-(2-Ethyl-4-(3-fluorophenyl)-1H-imidazol-5-yl)benzo[d]thiazole], the half-inhibitory concentration (IC50) came out at 570 nM in test [1] and 2540 nM in test [2].
Take `CCc1nc(-c2cccc(F)c2)c(-c2ccc3nccn3c2)[nH]1` [Compound 138, 6-(2-Ethyl-4-(3-fluorophenyl)-1H-imidazol-5-yl)imidazo[1,2-a]pyridine]: the half-inhibitory concentration (IC50) in test [1] worked out at 730 nM; in test [2], 3260 nM.
In the same order, the values of `CCc1nc(-c2cc(F)cc(Cl)c2)c(-c2ccc3[nH]ncc3c2)[nH]1` [Compound 139, 5-(4-(3-Chloro-5-fluorophenyl)-2-ethyl-1H-imidazol-5-yl)-1H-indazole] are 650 nM and 2030 nM.
The matching figures for `CCc1nc(-c2cc(F)cc(Cl)c2)c(-c2ccc3ncsc3c2)[nH]1` [Compound 140, 6-(4-(3-Chloro-5-fluorophenyl)-2-ethyl-1H-imidazol-5-yl)benzo[d]thiazole]: 620 nM and 2220 nM.
